Laboratory results taken from patent US20240218022A1, “ANTI-VISTA MACROCYCLIC PEPTIDES AND COMPOSITIONS” (BRISTOL-MYERS SQUIBB COMPANY, priority 2022, published 2024).
Starred links: 1 amine or outer side, 2 acyl side, 3 side chain; linkers in the order of their positions; H or OH if unused. Positions of bridges follow the written chain, without caps; N, C: chain ends. Non-standard residues stand in square brackets, D forms with d. Residues, ends and D or L forms follow the SMILES beside them. Phe(3-Me) = Cc1cccc(C[C@H](N)C(=O)O)c1; 2Nal = N[C@@H](Cc1ccc2ccccc2c1)C(=O)O; βAsp = O=C(O)[C@H](CC(=O)[*:2])N[*:1]; Cit = NC(=O)NCCC[C@H](N)C(=O)O; NMeL = CN[C@@H](CC(C)C)C(=O)O; Ahp(2) = CCCCC[C@H](N)C(=O)O; NMeNle = CCCC[C@H](NC)C(=O)O; Tle = CC(C)(C)[C@H](N)C(=O)O; NHexGly = CCCCCCNCC(=O)O; Nle = CCCC[C@H](N)C(=O)O; Aun = NCCCCCCCCCCC(=O)O; AEEA = NCCOCCOCC(=O)O

target: T1, mouse VISTA (mVISTA) (Mus musculus, UniProt Q9D659); assay: Cell-Based Binding High-Content Assay For mVISTA (HC CBA mVISTA); settings: cell-based binding high-content assay, mVISTA; read-out: HC CBA miPr ISTA IC50
T1 construct: expressed in transfected cells; host or cells: Human embryonic kidney 293T cells
T1 sequence (Q9D659 33-308): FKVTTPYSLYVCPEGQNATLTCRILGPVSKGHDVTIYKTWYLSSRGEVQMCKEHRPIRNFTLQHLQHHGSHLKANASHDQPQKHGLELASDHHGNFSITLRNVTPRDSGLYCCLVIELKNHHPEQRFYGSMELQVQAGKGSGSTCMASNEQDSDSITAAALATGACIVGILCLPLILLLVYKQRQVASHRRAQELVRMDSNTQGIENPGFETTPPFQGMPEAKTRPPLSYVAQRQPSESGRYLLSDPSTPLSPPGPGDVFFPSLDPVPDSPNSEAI
Method in brief: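 Read-out: Alexa 647–streptavidin signal imaged on fixed, Hoechst-stained mVISTA-293T cells, with IC50 taken from a four-parameter logistic curve. Compounds competed with 2 nM biotinylated peptide for 30 min at room temperature, tested under both no-wash and wash (1 h compound, media exchange, 1 h) formats.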

Row | Compound | IC50 [nM]
1 | CCCCCCN1CC(=O)N[C@@H](Cc2ccc(O)cc2)C(=O)N[C@@H](CCCC)C(=O)N[C@@H](CC(=O)O)C(=O)N[C@@H](CCCNC(N)=O)C(=O)N[C@@H](CC(C)C)C(=O)N[C@@H](CCCCC)C(=O)N2CCC[C@H]2C(=O)N[C@@H](C(C)C)C(=O)N[C@@H](CC(N)=O)C(=O)N[C@H](C(=O)NCC(=O)NCCOCCOCC(=O)N[C@@H](CC(=O)O)C(=O)NCCOCCOCC(=O)NCCCCCCCCCCC(=O)O)CSCC(=O)N[C@@H](Cc2ccccc2)C(=O)N[C@@H](Cc2ccc(O)cc2)C(=O)N[C@@H](CC(=O)O)C1=O [compound 2018] ({CH2CO}-FYD[NHexGly]Y[Nle]D[Cit]L[Ahp(2)]PVNCG[AEEA]D[AEEA][Aun]-OH; thioether N-14) | 20.4
2 | CCCCCCN1CC(=O)N[C@@H](Cc2ccc(O)cc2)C(=O)N[C@@H](CCCC)C(=O)N[C@@H](CC(N)=O)C(=O)N[C@@H](CCCNC(=N)N)C(=O)N(C)[C@@H](CCCC)C(=O)N[C@@H](CCCCC)C(=O)N2CCC[C@H]2C(=O)N[C@@H](C(C)(C)C)C(=O)N[C@@H](CO)C(=O)N[C@H](C(=O)N[C@@H](CC(=O)NCCOCCOCC(=O)N[C@@H](CC(=O)O)C(=O)NCCOCCOCC(=O)NCCCCCCCCCCC(=O)O)C(=O)O)CSCC(=O)N[C@@H](Cc2ccccc2)C(=O)N[C@@H](Cc2ccc(O)cc2)C(=O)N[C@@H](CC(=O)O)C1=O [compound 2021] ({CH2CO}-FYD[NHexGly]Y[Nle]NR[NMeNle][Ahp(2)]P[Tle]SC[βAsp][AEEA]D[AEEA][Aun]-OH; thioether N-14) | 19.5
3 | CCCCCCN1CC(=O)N[C@@H](Cc2ccc(O)cc2)C(=O)N[C@@H](CCCC)C(=O)N[C@@H](CC(N)=O)C(=O)N[C@@H](CCCNC(=N)N)C(=O)N(C)[C@@H](CCCC)C(=O)N[C@@H](CCCCC)C(=O)N2CCC[C@H]2C(=O)N[C@@H](C(C)(C)C)C(=O)N[C@@H](CO)C(=O)N[C@H](C(=O)N[C@@H](CC(=O)NCCOCCOCC(=O)N[C@@H](CC(=O)O)C(=O)NCCOCCOCC(=O)NCCCCCCCCCCC(=O)O)C(=O)O)CSCC(=O)N[C@@H](Cc2ccccc2)C(=O)N[C@@H](Cc2c[nH]c3ccccc23)C(=O)N[C@@H](CC(=O)O)C1=O [compound 2022] ({CH2CO}-FWD[NHexGly]Y[Nle]NR[NMeNle][Ahp(2)]P[Tle]SC[βAsp][AEEA]D[AEEA][Aun]-OH; thioether N-14) | 22.7
4 | CCCCCCN1CC(=O)N[C@@H](Cc2ccc(O)cc2)C(=O)N[C@@H](CCCC)C(=O)N[C@@H](CC(N)=O)C(=O)N[C@@H](CCCNC(=N)N)C(=O)N(C)[C@@H](CCCC)C(=O)N[C@@H](CCCCC)C(=O)N2CCC[C@H]2C(=O)N[C@@H](C(C)(C)C)C(=O)N[C@@H](CO)C(=O)N[C@H](C(=O)N[C@@H](CC(=O)NCCOCCOCC(=O)N[C@@H](CC(=O)O)C(=O)NCCOCCOCC(=O)NCCCCCCCCCCC(=O)O)C(=O)O)CSCC(=O)N[C@@H](Cc2ccc3ccccc3c2)C(=O)N[C@@H](Cc2ccc(O)cc2)C(=O)N[C@@H](CC(=O)O)C1=O [compound 2023] ({CH2CO}-[2Nal]YD[NHexGly]Y[Nle]NR[NMeNle][Ahp(2)]P[Tle]SC[βAsp][AEEA]D[AEEA][Aun]-OH; thioether N-14) | 41.2
5 | CCCCCCN1CC(=O)N[C@@H](Cc2ccc(O)cc2)C(=O)N[C@@H](CCCC)C(=O)N[C@@H](CC(N)=O)C(=O)N[C@@H](CCCNC(=N)N)C(=O)N(C)[C@@H](CCCC)C(=O)N[C@@H](CCCCC)C(=O)N2CCC[C@H]2C(=O)N[C@@H](C(C)(C)C)C(=O)N[C@@H](CO)C(=O)N[C@H](C(=O)N[C@@H](CC(=O)NCCOCCOCC(=O)N[C@@H](CC(=O)O)C(=O)NCCOCCOCC(=O)NCCCCCCCCCCC(=O)O)C(=O)O)CSCC(=O)N[C@@H](Cc2cccc(C)c2)C(=O)N[C@@H](Cc2c[nH]c3ccccc23)C(=O)N[C@@H](CC(=O)O)C1=O [compound 2024] ({CH2CO}-[Phe(3-Me)]WD[NHexGly]Y[Nle]NR[NMeNle][Ahp(2)]P[Tle]SC[βAsp][AEEA]D[AEEA][Aun]-OH; thioether N-14) | 40.3
6 | CCCCCCN1CC(=O)N[C@@H](Cc2ccc(O)cc2)C(=O)N[C@@H](CC(C)C)C(=O)N[C@@H](CC(N)=O)C(=O)N[C@@H](CCCNC(=N)N)C(=O)N(C)[C@@H](CCCC)C(=O)N[C@@H](CCCCC)C(=O)N2CCC[C@H]2C(=O)N[C@@H](C(C)(C)C)C(=O)N[C@@H](CC(=O)O)C(=O)N[C@H](C(=O)N[C@@H](CC(=O)NCCOCCOCC(=O)N[C@@H](CC(=O)O)C(=O)NCCOCCOCC(=O)NCCCCCCCCCCC(=O)O)C(=O)O)CSCC(=O)N[C@@H](Cc2ccccc2)C(=O)N[C@@H](Cc2c[nH]c3ccccc23)C(=O)N[C@@H](CC(=O)O)C1=O [compound 2027] ({CH2CO}-FWD[NHexGly]YLNR[NMeNle][Ahp(2)]P[Tle]DC[βAsp][AEEA]D[AEEA][Aun]-OH; thioether N-14) | 27.5
7 | CCCCCCN1CC(=O)N[C@@H](Cc2ccc(O)cc2)C(=O)N[C@@H](CC(C)C)C(=O)N[C@@H](CC(N)=O)C(=O)N[C@@H](CCCNC(=N)N)C(=O)N(C)[C@@H](CCCC)C(=O)N[C@@H](CCCCC)C(=O)N2CCC[C@H]2C(=O)N[C@@H](C(C)(C)C)C(=O)N[C@@H](CO)C(=O)N[C@H](C(=O)N[C@@H](CC(=O)NCCOCCOCC(=O)N[C@@H](CC(=O)O)C(=O)NCCOCCOCC(=O)NCCCCCCCCCCC(=O)O)C(=O)O)CSCC(=O)N[C@@H](Cc2ccccc2)C(=O)N[C@@H](Cc2ccc(O)cc2)C(=O)N[C@@H](CC(=O)O)C1=O [compound 2030] ({CH2CO}-FYD[NHexGly]YLNR[NMeNle][Ahp(2)]P[Tle]SC[βAsp][AEEA]D[AEEA][Aun]-OH; thioether N-14) | 22.8
8 | CCCCCCN1CC(=O)N[C@@H](Cc2ccc(O)cc2)C(=O)N[C@@H](CC(C)C)C(=O)N[C@@H](CC(N)=O)C(=O)N[C@@H](CCCNC(=N)N)C(=O)N(C)[C@@H](CC(C)C)C(=O)N[C@@H](CCCCC)C(=O)N2CCC[C@H]2C(=O)N[C@@H](C(C)(C)C)C(=O)N[C@@H](CC(=O)O)C(=O)N[C@H](C(=O)N[C@@H](CC(=O)NCCOCCOCC(=O)N[C@@H](CC(=O)O)C(=O)NCCOCCOCC(=O)NCCCCCCCCCCC(=O)O)C(=O)O)CSCC(=O)N[C@@H](Cc2ccccc2)C(=O)N[C@@H](Cc2c[nH]c3ccccc23)C(=O)N[C@@H](CC(=O)O)C1=O [compound 2032] ({CH2CO}-FWD[NHexGly]YLNR[NMeL][Ahp(2)]P[Tle]DC[βAsp][AEEA]D[AEEA][Aun]-OH; thioether N-14) | 28.1

The next compounds have a lower IC50 than those just listed; values first:

Row | IC50 [nM] | Compound
9 | 14.4 | CCCCCCN1CC(=O)N[C@@H](Cc2ccc(O)cc2)C(=O)N[C@@H](CCCC)C(=O)NCC(=O)N[C@@H](CCCNC(N)=O)C(=O)N[C@@H](CC(C)C)C(=O)N[C@@H](CCCCC)C(=O)N2CCC[C@H]2C(=O)N[C@@H](C(C)C)C(=O)N[C@@H](CC(=O)O)C(=O)N[C@H](C(=O)NCC(=O)NCCOCCOCC(=O)N[C@@H](CC(=O)O)C(=O)NCCOCCOCC(=O)NCCCCCCCCCCC(=O)O)CSCC(=O)N[C@@H](Cc2cccc(C)c2)C(=O)N[C@@H](Cc2ccc(O)cc2)C(=O)N[C@@H](CC(=O)O)C1=O [compound 2019] ({CH2CO}-[Phe(3-Me)]YD[NHexGly]Y[Nle]G[Cit]L[Ahp(2)]PVDCG[AEEA]D[AEEA][Aun]-OH; thioether N-14)
10 | 17.5 | CCCCCCN1CC(=O)N[C@@H](Cc2ccc(O)cc2)C(=O)N[C@@H](CC(C)C)C(=O)N[C@@H](CC(N)=O)C(=O)N[C@@H](CCCNC(=N)N)C(=O)N(C)[C@@H](CC(C)C)C(=O)N[C@@H](CCCCC)C(=O)N2CCC[C@H]2C(=O)N[C@@H](C(C)(C)C)C(=O)N[C@@H](CC(=O)O)C(=O)N[C@H](C(=O)N[C@@H](CC(=O)NCCOCCOCC(=O)N[C@@H](CC(=O)O)C(=O)NCCOCCOCC(=O)NCCCCCCCCCCC(=O)O)C(=O)O)CSCC(=O)N[C@@H](Cc2ccccc2)C(=O)N[C@@H](Cc2ccc(O)cc2)C(=O)N[C@@H](CC(=O)O)C1=O [compound 2026] ({CH2CO}-FYD[NHexGly]YLNR[NMeL][Ahp(2)]P[Tle]DC[βAsp][AEEA]D[AEEA][Aun]-OH; thioether N-14)
11 | 17.5 | CCCCCCN1CC(=O)N[C@@H](Cc2ccc(O)cc2)C(=O)N[C@@H](CC(C)C)C(=O)N[C@@H](CC(N)=O)C(=O)N[C@@H](CCCNC(=N)N)C(=O)N(C)[C@@H](CCCC)C(=O)N[C@@H](CCCCC)C(=O)N2CCC[C@H]2C(=O)N[C@@H](C(C)(C)C)C(=O)N[C@@H](CC(=O)O)C(=O)N[C@H](C(=O)N[C@@H](CC(=O)NCCOCCOCC(=O)N[C@@H](CC(=O)O)C(=O)NCCOCCOCC(=O)NCCCCCCCCCCC(=O)O)C(=O)O)CSCC(=O)N[C@@H](Cc2ccccc2)C(=O)N[C@@H](Cc2ccc(O)cc2)C(=O)N[C@@H](CC(=O)O)C1=O [compound 2029] ({CH2CO}-FYD[NHexGly]YLNR[NMeNle][Ahp(2)]P[Tle]DC[βAsp][AEEA]D[AEEA][Aun]-OH; thioether N-14)
12 | 14.5 | CCCCCCN1CC(=O)N[C@@H](Cc2ccc(O)cc2)C(=O)N[C@@H](CC(C)C)C(=O)N[C@@H](CC(N)=O)C(=O)N[C@@H](CCCNC(=N)N)C(=O)N(C)[C@@H](CC(C)C)C(=O)N[C@@H](CCCCC)C(=O)N2CCC[C@H]2C(=O)N[C@@H](C(C)(C)C)C(=O)N[C@@H](CO)C(=O)N[C@H](C(=O)N[C@@H](CC(=O)NCCOCCOCC(=O)N[C@@H](CC(=O)O)C(=O)NCCOCCOCC(=O)NCCCCCCCCCCC(=O)O)C(=O)O)CSCC(=O)N[C@@H](Cc2ccccc2)C(=O)N[C@@H](Cc2ccc(O)cc2)C(=O)N[C@@H](CC(=O)O)C1=O [compound 2031] ({CH2CO}-FYD[NHexGly]YLNR[NMeL][Ahp(2)]P[Tle]SC[βAsp][AEEA]D[AEEA][Aun]-OH; thioether N-14)
